Assay results: article PMC6920875, “Dithiocarbamate as a Valuable Scaffold for the Inhibition of Metallo-β-Lactmases” (Biomolecules, 2019)

Assays:
IMP-1 = target: T1, IMP-1 (Serratia marcescens, UniProt P52699); test: biochemical; conditions: read-out: inhibition against IMP-1
T1 construct: made in house; host or cells: E. coli BL21 (DE3), plasmid pET26b-IMP-1
Experimental: (§1) The dithiocarbamates, MβLs and substrates samples were prepared with 30 mM Tris, pH 7.0. […] Enzymes and inhibitors were pre-incubated for 5 min before adding substrate. […] The IC50 values were nonlinearly fitted by plotting the average percentage inhibition against inhibitor concentration. The inhibition modes of DC1 to ImiS, NDM-1 and L1 were assayed by generating Lineweaver–Burk plots, and Ki values were obtained by fitting initial velocity versus substrate concentration at each inhibitor concentration, using SigmaPlot 12.0 (Systat Software Inc., San Jose, CA, USA).
(§2) To evaluate the inhibitory activity of the dithiocarbamates, we over-expressed and purified MβLs NDM-1, VIM-2 and IMP-1 (B1), ImiS (B2), and L1 (B3) from three subclasses as previously reported. The inhibition experiments were performed with an Agilent UV8453 spectrometer. […] The concentrations of inhibitors were varied between 0 and 200 μM. The initial reaction rates were determined in the absence and presence of inhibitors in triplicate, and the generated average values were recorded.

L1 [1] = target: T2, L1 (Stenotrophomonas maltophilia, UniProt P52700); test: biochemical; conditions: read-out: inhibition against L1
T2 construct: made in house; host or cells: E. coli BL21 (DE3), plasmid pET-26b-L1
Experimental: as §1, §2

NDM-1 [2] = target: T3, NDM-1 (Klebsiella pneumoniae, UniProt C7C422); test: biochemical; conditions: read-out: inhibition against NDM-1
T3 construct: made in house; host or cells: E. coli BL21 (DE3), plasmid pET26b-NDM-1
Experimental: as §1, §2

L1 [3] = target: T2, L1; test: Inhibition kinetics, Lineweaver–Burk plots; format: biochemical
Experimental: as §1
(§3) To further identify the inhibition mode of the DCs against MβLs, we performed inhibition kinetics of NDM-1, ImiS and L1 by DC1, at different concentrations, with different substrate concentrations. […] Enzyme and inhibitors were pre-incubated for 5 min before starting the kinetic assays. All experimental hydrolytic rates of substrates were determined in triplicate. The inhibition mode of dithiocarbamates on MβLs was identified by generating Lineweaver–Burk plots, and Ki values were gained by fitting the initial velocity versus substrate concentration at each inhibitor concentration, using SigmaPlot 12.0.

NDM-1 [4] = target: T3, NDM-1; test: Inhibition kinetics, Lineweaver–Burk plots; format: biochemical
Experimental: as §1, §3

ImiS [5] = target: T4, ImiS (Aeromonas veronii, UniProt O31272); test: Isothermal titration calorimetry (ITC) of MβL-catalysed substrate hydrolysis; format: biochemical, Aeromonas veronii bv. sobria; conditions: 100 nM enzyme, 1 mM imipenem, inhibitor 0-200 μM, 25 °C
T4 construct: made in house; host or cells: E. coli BL21 (DE3), plasmid pET-26b-ImiS
Experimental: Isothermal titration calorimetry (ITC) assays were performed on a Malvern MicroCal iTC 200 instrument (Malvern Instruments, Malvern, UK) at 25 °C, by a single injection mode. During ITC experiments the reference cell was filled with degassed water. The MβLs, substrates, and inhibitor DC1 were prepared with 50 mM Tris, pH 7.0. The concentration of MβLs used was in the range 100–200 nM, concentration of substrate was 1 mM, and concentrations of DC1 were varied between 0 and 200 µM. Before starting the measurement, the enzyme was pre-incubated with different concentrations of DC1 for 5 min, and then delivered into the sample cell (210 µL). The hydrolysis reaction in the absence of inhibitors was also determined as a control. The stirring rate of the syringe was set to 750 rpm. The system was equilibrated at the desired 25 °C. […] Heat flow was recorded as a function of time. Data were collected every 1 s until the signal reached the baseline and continued to be recorded for the length of time necessary to generate the final baseline.
Isothermal titration calorimetry (ITC) was also employed, to identify the inhibition of the dithiocarbamates on MβLs and study their thermodynamic behaviour. […]

L1 [6] = target: T2, L1; test: Inhibitor reversibility, activity recovery after rapid 100-fold dilution; format: biochemical; conditions: 5.8 μM enzyme, 25.3 μM inhibitor, 10 min pre-incubation
Experimental: (§4) It can be observed in Figure 4d–f that the Q value remains almost unchanged in the presence or absence of inhibitors, likely because the formation of the enzyme-inhibitor complex (EI), that slowed down substrate hydrolysis, was reversible. […] We assayed the binding reversibility of DC1 to MβLs by measuring the enzymatic activity recovery after a large, rapid dilution of the MβL-DC1 complex.
(§5) Determination of inhibitor reversibility
(§6) NDM-1, ImiS and L1 were incubated at a concentration of 1.3, 5.0 and 5.8 μM, which is 100-fold over the concentration required for the activity assay, with DC1 at a concentration of 1.5, 0.7 and […]
(§7) After 10 minutes pre-incubation, the recovery of enzymatic activity was determined after rapid and large dilution (100-fold) with the reaction […]
(§8) Figure S2. Recovery of NDM-1 (a), ImiS (b) and L1 (c) activity after rapid dilution of the enzyme-inhibitor complex. The curve in black refers to the control sample pre-incubated and diluted in the absence of inhibitor. Curves in red refer to MβLs pre-incubated with DC1. […]

NDM-1 [7] = target: T3, NDM-1; test: as above; format: biochemical; conditions: 1.3 μM enzyme, 10 min pre-incubation
Experimental: as §4, §5, §6, §7, §8

ImiS [8] = target: T4, ImiS; test: as above; format: biochemical, Aeromonas veronii bv. sobria; conditions: 5.0 μM enzyme, 0.7 μM inhibitor, 10 min pre-incubation
Experimental: as §4, §5, §6, §7, §8

T3 sequence (C7C422 29-270 limits assumed): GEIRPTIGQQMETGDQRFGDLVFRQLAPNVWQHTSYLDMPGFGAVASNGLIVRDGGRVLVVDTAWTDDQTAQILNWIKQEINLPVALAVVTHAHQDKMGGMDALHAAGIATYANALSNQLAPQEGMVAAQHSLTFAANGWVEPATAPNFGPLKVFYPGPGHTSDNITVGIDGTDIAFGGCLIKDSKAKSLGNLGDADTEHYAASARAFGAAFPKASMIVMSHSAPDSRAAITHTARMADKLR
T2 sequence (P52700 34-290): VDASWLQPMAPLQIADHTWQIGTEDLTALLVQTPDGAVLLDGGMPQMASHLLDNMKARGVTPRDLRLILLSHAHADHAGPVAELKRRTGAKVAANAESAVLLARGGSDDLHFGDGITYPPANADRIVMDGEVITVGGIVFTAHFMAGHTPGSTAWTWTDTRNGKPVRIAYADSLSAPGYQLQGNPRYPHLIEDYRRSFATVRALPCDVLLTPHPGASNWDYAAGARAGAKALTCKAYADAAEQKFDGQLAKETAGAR
T4 sequence (O31272 28-255 limits assumed): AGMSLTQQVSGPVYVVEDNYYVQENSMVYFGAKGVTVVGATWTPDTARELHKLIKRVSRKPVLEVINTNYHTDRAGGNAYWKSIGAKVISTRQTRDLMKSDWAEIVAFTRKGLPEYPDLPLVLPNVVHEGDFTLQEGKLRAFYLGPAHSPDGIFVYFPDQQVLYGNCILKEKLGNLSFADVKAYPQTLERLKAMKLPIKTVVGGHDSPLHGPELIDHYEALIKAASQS
T1 sequence (P52699 19-246 limits assumed): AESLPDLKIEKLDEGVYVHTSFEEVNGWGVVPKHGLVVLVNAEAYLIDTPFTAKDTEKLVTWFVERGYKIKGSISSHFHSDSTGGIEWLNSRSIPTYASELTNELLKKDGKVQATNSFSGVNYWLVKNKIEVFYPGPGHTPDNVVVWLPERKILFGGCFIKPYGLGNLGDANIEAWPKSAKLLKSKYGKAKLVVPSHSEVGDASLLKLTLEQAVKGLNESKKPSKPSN

O=C(NNC(=S)[S][K])c1ccccc1O [DC1]
inhibition at 10 µM (IMP-1): > 90% | inhibition at 8 µM (L1 [1]): > 90% | inhibition at 20 µM (NDM-1 [2]): > 90% | inhibition mode against L1 (L1 [3]; Lineweaver–Burk plots): partially mixed inhibition | Ki (L1 [3]; read-out: Ki against L1, cefazolin 20-120 µM, inhibitor 0-20 μM, SigmaPlot fit): 5060 nM | inhibition mode against NDM-1 (NDM-1 [4]; Lineweaver–Burk plots): partially mixed inhibition | Ki (NDM-1 [4]; read-out: Ki against NDM-1, cefazolin 20-120 µM, inhibitor 0-20 μM, SigmaPlot fit): 290 nM | reversibility of inhibition of ImiS by ITC (total heat Q constant) (ImiS [5]): reversible | reversibility, recovery of L1 activity after rapid dilution (L1 [6]): reversible inhibitor | reversibility, recovery of NDM-1 activity after rapid dilution (NDM-1 [7]): reversible inhibitor | reversibility, recovery of ImiS activity after rapid dilution (ImiS [8]): reversible inhibitor
